According to patent publication US10682317B2 (ZOGENIX INTERNATIONAL LIMITED, priority 2017, dated 2020):
In brackets after ≈: the same amount, converted by molar mass. Several values for one entry are separate records, joined by “and”; a condition that tells them apart may be missing. Identical values can stand only once. Counter-ions that a name gives are not always drawn. Like-named read-outs stand apart in the source and are kept apart here.

Columns and labels:
[1] = Paraben preservative degradation (hydrolysis); assay type: physicochemical; conditions: pH 6
Description: The pH of the drug product formulation was optimized to minimize the preservative degradation.
Like methylparaben, ethylparaben degrades in solution by hydrolysis. The rate increases at higher pH. The pH of the drug product formulation was optimized to minimize the preservative degradation while maintaining adequate solubility, and no significant increase in the preservatives degradation product has been observed in long-term stability studies.

seizures [2] = experiment: Treatment of seizures in epilepsy patients; assay type: in vivo, human
Description: Clemens, in Epilepsy Research (1988) 2:340-343 reported a study on a child suffering pattern sensitivity-induced seizures that were resistant to anticonvulsive treatment.
This is confirmed, for example, in the article by Ceulemans et al., Epilepsia (2012) 53(7):1131-1139, the contents of which are incorporated herein.
(§1) The overall anorectic effect of dexfenfluramine is greater than that of […] in experimental animals (Garratini et al. 1988) and humans (Goodall et al. 1992). […] Put differently, a preferred dose is not more than about 30 mg/day, and less than about 1 to about 0.01 mg/kg/day.

[3] = test system: food intake / carbohydrate craving; experiment: Anorectic effect, food intake and carbohydrate craving; assay type: in vivo, human; conditions: surprisingly low dose, compared to 60-120 mg/day for obesity
Experimental: as §1

seizures [4] = conditions: cited from earlier work
[5] = test system: cardiac fibrosis and pulmonary hypertension; conditions: marketed use for obesity; cited from earlier work
[6] = test system: food intake / carbohydrate craving; conditions: cited from earlier work
[7] = Particle size of drug substance batches; assay type: physicochemical
Description: Fenfluramine hydrochloride drug substance is non-micronized. The range of particle size parameters obtained from five GMP batches (two clinical batches manufactured by Onyx, and three registration batches manufactured by Aptuit) is listed in Table 1.

[8] = Buffer system selection: stability of pH prototypes; assay type: physicochemical; conditions: pH range of 4.5 to 6.5, citrate or citrate-phosphate buffer prototypes
Experimental: A pH range of 4.5 to 6.5 was investigated during formulation development studies. Various prototypes were prepared with either citrate buffer or citrate-phosphate buffer, depending on target pH. […] Based on initial stability data, a target pH of 5.0 (range: 4.5-5.5) was selected because it minimized the preservatives degradation at long-term and accelerated stability conditions without causing precipitation in product stored at 2-8° C. The buffer components in the drug product formulation are tripotassium citrate and citric acid. Potassium citrate was used instead of sodium citrate to avoid common ion effect with the paraben sodium salts, which may have contributed to precipitation in prototypes containing sodium citrate.

[9] = Solid state stability and polymorph screening; assay type: physicochemical
[10] = pH 6.8
[11] = Aqueous solubility of the drug substance; conditions: aqueous solution
[12] = cited from earlier work
[13] = molecular target: T1, vesicular glutamate transporter, VGLUT2 (Homo sapiens, UniProt Q9P2U8); conditions: concentrations expected during the ketogenic diet; cited from earlier work
T1 sequence (Q9P2U8 1-582): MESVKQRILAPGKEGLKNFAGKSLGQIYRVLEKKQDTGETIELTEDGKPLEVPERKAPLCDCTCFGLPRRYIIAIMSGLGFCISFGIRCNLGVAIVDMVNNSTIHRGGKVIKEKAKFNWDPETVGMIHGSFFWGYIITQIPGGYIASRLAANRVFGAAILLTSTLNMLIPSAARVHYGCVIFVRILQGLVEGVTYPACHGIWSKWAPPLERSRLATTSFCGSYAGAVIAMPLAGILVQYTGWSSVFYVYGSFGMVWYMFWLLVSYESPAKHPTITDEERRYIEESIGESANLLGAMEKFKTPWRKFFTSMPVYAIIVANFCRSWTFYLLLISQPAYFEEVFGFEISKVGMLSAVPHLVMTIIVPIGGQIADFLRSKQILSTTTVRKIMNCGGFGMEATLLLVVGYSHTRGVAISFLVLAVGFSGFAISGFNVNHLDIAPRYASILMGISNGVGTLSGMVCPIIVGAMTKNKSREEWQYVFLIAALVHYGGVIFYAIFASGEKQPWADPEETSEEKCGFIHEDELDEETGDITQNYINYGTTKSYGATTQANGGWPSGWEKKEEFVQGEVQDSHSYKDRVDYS

[14] = clinical and registration batches 1-5, hydrochloride

COC(=O)c1ccc(O)cc1.[Na] [Methylparaben sodium, sodium methyl p-hydroxybenzoate]
stability against hydrolysis [1]: acceptable stability below pH 6

CCNC(C)Cc1cccc(C(F)(F)F)c1 (stereo not shown) [fenfluramine, 3-trifluoromethyl-N-ethylamphetamine]
effect on seizures (seizures [2]; patients with Dravet syndrome, Lennox-Gastaut syndrome, or Doose syndrome): reduce or eliminate seizures | efficacy of low doses on seizures (seizures [2]; surprisingly low doses, Dravet, Lennox-Gastaut or Doose syndrome patients): efficacious | appetite and craving for carbohydrates [3]: effective in reducing appetite and craving for carbohydrates | effect on seizures (seizures [4]; child with pattern sensitivity-induced seizures resistant to anticonvulsive treatment): successfully terminated these self-induced seizures | number of seizures (seizures [4]; children with refractory epilepsy, 0.5 to 1 mg/kg/day): reduction in the number of seizures | response of seizures (seizures [4]; four cases of self-induced photosensitive seizures): responded to treatment | therapeutic benefit (seizures [4]; patients with intractable epilepsy): appeared to be of therapeutic benefit | adverse effects associated with use [5]: associated with the onset of cardiac fibrosis and pulmonary hypertension

CCN[C@@H](C)Cc1cccc(C(F)(F)F)c1 (racemic) [Dexfenfluramine]
carbohydrate craving ([6]; adults, 30 mg/day): reduction in carbohydrate craving | suppression of food intake ([6]; dose of 30 mg): suppressed food intake to the same degree as fenfluramine 60 mg | anorectic potency vs racemic mixture fenfluramine ([6]; group of 16 human subjects): twice the anorectic potency

CCNC(C)Cc1cccc(C(F)(F)F)c1 (stereo not shown) [fenfluramine hydrochloride]
D50 [7, 14]: 6.99 μm and 6.79 μm and 8.92 μm and 8.20 μm and 6.16 μm | D90 [7, 14]: 23.01 μm and 26.25 μm and 32.08 μm and 27.04 μm and 18.96 μm | median particle size (D50) ([7]; experimental batch): 60 μm | ninetieth percentile (D90) ([7]; experimental batch): 250 μm | time needed for complete dissolution in the formulation vehicle ([7]; experimental batch vs micronized portions of the same batch): no difference was observed in the time needed for complete dissolution | stability over pH range [8]: stable over the entire range of pH | polymorphs observed ([9]; polymorph screening study, accelerated and long-term stability studies): no other polymorphs have been observed | solid state stability ([9]; solid state): chemically and physically stable in the solid state | time for which the solution is stable [10]: at least 6 months | solubility ([11]; 25 °C, pH 1.7, simulated gastric fluid): ~25 mg/mL | solubility ([11]; 25 °C, pH 6.7, aqueous buffer): > 50 mg/mL | solubility ([11]; 37 °C, aqueous buffer): 54 to 96 mg/mL

CCOC(=O)c1ccc(O)cc1 [ethylparaben, ethyl 4-hydroxybenzoic acid]
solubility of the free acid in water ([12]; 20° C.): 0.07% | solubility of the free acid in water ([12]; 25° C.): 0.08% | solubility [12]: 0.8 mg/mL (≈ 4.81 mM)

CC(=O)CC(=O)O [acetoacetate]
glutamate transport by VGLUT2 [13]: inhibited
